Measurements taken from patent publication US20160009693A1, “HERBICIDAL COMPOUNDS” (SYNGENTA LIMITED, priority 2013, published 2016).

Legend:
Type in all cases: in vivo
Conditions in all cases: applied at 1000 g/h, evaluated after 13 days
[1] = test system: Amaranthus retoflexus (AMARE); assay: Herbicidal glasshouse test, pre-emergence, AMARE
Procedure, shortened: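 Amaranthus retoflexus seeds were sown in pots of standard soil and kept one day in a glasshouse at 24/16° C. (day/night), 14 hours light and 65% humidity. They were then sprayed pre-emergence with the active ingredient in acetone/water (50:50) containing 0.5% Tween 20. Plants grew under the same conditions, watered twice daily, and percentage damage was scored after 13 days.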

Setaria faberi (SETFA) [2] = assay: Herbicidal glasshouse test, pre-emergence, SETFA
[3] = test system: Amaranthus retoflexus (AMARE); assay: Herbicidal glasshouse test, post-emergence, AMARE
Procedure, shortened: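 Amaranthus retoflexus (AMARE) seeds were sown in pots of standard soil and grown in a glasshouse at 24/16° C. day/night, 14 hours light and 65% humidity for 8 days. The plants were then sprayed post-emergence with an aqueous solution of the active ingredient in acetone/water (50:50) with 0.5% Tween 20. Damage was scored after 13 days.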

[4] = test system: Echinochloa crus-galli (ECHCG); assay: Herbicidal glasshouse test, pre-emergence, ECHCG
Procedure, shortened: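 Echinochloa crus-galli seeds were sown in standard soil in pots and grown for one day in a glasshouse at 24/16° C. day/night, 14 hours light and 65% humidity. Pre-emergence spraying used an aqueous solution of the active ingredient in acetone/water (50:50) with 0.5% Tween 20. Damage was scored after 13 days on a five point scale.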

[5] = test system: Ipomoea hederacea (IPOHE); assay: Herbicidal glasshouse test, pre-emergence, IPOHE
[6] = test system: Alopecurus myosuroides (ALOMY); assay: Herbicidal glasshouse test, post-emergence, ALOMY
Setaria faberi (SETFA) [7] = assay: Herbicidal glasshouse test, post-emergence, SETFA
Procedure, shortened: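 Setaria faberi seeds were sown in standard soil in pots and grown for 8 days in a glasshouse at 24/16° C. day/night, 14 hours light and 65% humidity. The seedlings were then sprayed post-emergence with the active ingredient in acetone/water (50:50) containing 0.5% Tween 20. Afterwards they were kept under the same conditions, watered twice daily, and scored for percentage damage on a five point scale.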

Solanum nigrum (SOLNI) [8] = assay: Herbicidal glasshouse test, pre-emergence, SOLNI
Procedure, shortened: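 Seeds of Solanum nigrum were sown in pots of standard soil and kept one day in a glasshouse at 24/16° C. day/night, 14 hours light and 65% humidity. For the pre-emergence treatment they were then sprayed with an aqueous solution of the active ingredient formulated in acetone/water (50:50) containing 0.5% Tween 20. Plant damage was rated after 13 days.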

[9] = test system: Alopecurus myosuroides (ALOMY); assay: Herbicidal glasshouse test, pre-emergence, ALOMY
[10] = test system: Echinochloa crus-galli (ECHCG); assay: Herbicidal glasshouse test, post-emergence, ECHCG
Procedure, shortened: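 Echinochloa crus-galli (ECHCG) seeds were sown in standard soil in pots and grown for 8 days in a glasshouse at 24/16° C. day/night, 14 hours light and 65% humidity. The young plants were then sprayed post-emergence with the active ingredient in acetone / water (50:50) containing 0.5% Tween 20. Damage was scored after 13 days.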

Solanum nigrum (SOLNI) [11] = assay: Herbicidal glasshouse test, post-emergence, SOLNI
[12] = test system: Ipomoea hederacea (IPOHE); assay: Herbicidal glasshouse test, post-emergence, IPOHE

SMILES | PRE Application AMARE, percentage damage (five point scale) [1] | PRE Application SETFA, percentage damage (five point scale) (Setaria faberi (SETFA) [2]) | POST Application AMARE, percentage damage (five point scale) [3] | PRE Application ECHCG, percentage damage (five point scale) [4] | PRE Application IPOHE, percentage damage (five point scale) [5] | POST Application ALOMY, percentage damage (five point scale) [6] | POST Application SETFA, percentage damage (five point scale) (Setaria faberi (SETFA) [7]) | PRE Application SOLNI, percentage damage (five point scale) (Solanum nigrum (SOLNI) [8]) | PRE Application ALOMY, percentage damage (five point scale) [9] | POST Application ECHCG, percentage damage (five point scale) [10] | POST Application SOLNI, percentage damage (five point scale) (Solanum nigrum (SOLNI) [11]) | POST Application IPOHE, percentage damage (five point scale) [12]
Cn1nnnc1NC(=O)c1nn(C)c(=O)n(-c2cccc(Br)c2)c1=O [Compound 1.033] | 5 (5=80-100%) | 5 (5=80-100%) | 5 (5=80-100%) | 5 (5=80-100%) | 5 (5=80-100%) | 5 (5=80-100%) | 5 (5=80-100%) | 5 (5=80-100%) | 5 (5=80-100%) | 5 (5=80-100%) | 5 (5=80-100%) | 5 (5=80-100%)
CCOc1cccc(-n2c(=O)c(C(=O)Nc3nnnn3C)nn(C)c2=O)c1 [Compound 1.034] | 5 (5=80-100%) | 5 (5=80-100%) | 5 (5=80-100%) | 5 (5=80-100%) | 5 (5=80-100%) | 5 (5=80-100%) | 5 (5=80-100%) | 5 (5=80-100%) | 5 (5=80-100%) | 5 (5=80-100%) | 5 (5=80-100%) | 5 (5=80-100%)
Cn1nnnc1NC(=O)c1nn(C)c(=O)n(-c2cc(Cl)cc(Cl)c2)c1=O [Compound 1.035] | 5 (5=80-100%) | 4 (4=60-79%) | 5 (5=80-100%) | 5 (5=80-100%) | 5 (5=80-100%) | 5 (5=80-100%) | 5 (5=80-100%) | 5 (5=80-100%) | 5 (5=80-100%) | 5 (5=80-100%) | 5 (5=80-100%) | 5 (5=80-100%)
Cc1cc(-n2c(=O)c(C(=O)Nc3nnnn3C)nn(C)c2=O)ccc1F [Compound 1.037] | 5 (5=80-100%) | 5 (5=80-100%) | 5 (5=80-100%) | 5 (5=80-100%) | 5 (5=80-100%) | 5 (5=80-100%) | 5 (5=80-100%) | 5 (5=80-100%) | 5 (5=80-100%) | 5 (5=80-100%) | 5 (5=80-100%) | 5 (5=80-100%)
Cc1cc(C)cc(-n2c(=O)c(C(=O)Nc3nnnn3C)nn(C)c2=O)c1 [Compound 1.038] | 5 (5=80-100%) | 5 (5=80-100%) | 5 (5=80-100%) | 5 (5=80-100%) | 5 (5=80-100%) | 5 (5=80-100%) | 5 (5=80-100%) | 5 (5=80-100%) | 5 (5=80-100%) | 5 (5=80-100%) | 5 (5=80-100%) | 5 (5=80-100%)
Cn1nnnc1NC(=O)c1nn(C)c(=O)n(-c2ccc(OC(F)(F)F)cc2)c1=O [Compound 1.039] | 5 (5=80-100%) | 5 (5=80-100%) | 5 (5=80-100%) | 5 (5=80-100%) | 5 (5=80-100%) | 5 (5=80-100%) | 5 (5=80-100%) | 5 (5=80-100%) | 5 (5=80-100%) | 5 (5=80-100%) | 5 (5=80-100%) | 5 (5=80-100%)
Cn1nnnc1NC(=O)c1nn(C)c(=O)n(-c2ccc(C(C)(C)C)cc2)c1=O [Compound 1.040] | 5 (5=80-100%) | 5 (5=80-100%) | 5 (5=80-100%) | 5 (5=80-100%) | 3 (3=40-59%) | 4 (4=60-79%) | 5 (5=80-100%) | 5 (5=80-100%) | 5 (5=80-100%) | 5 (5=80-100%) | 5 (5=80-100%) | 4 (4=60-79%)
Cn1nnnc1NC(=O)c1nn(C)c(=O)n(-c2ccc(Cl)c(Cl)c2)c1=O [Compound 1.041] | 5 (5=80-100%) | 4 (4=60-79%) | 5 (5=80-100%) | 5 (5=80-100%) | 5 (5=80-100%) | 5 (5=80-100%) | 5 (5=80-100%) | 5 (5=80-100%) | 5 (5=80-100%) | 5 (5=80-100%) | 5 (5=80-100%) | 5 (5=80-100%)
